Measured values published in US6623933B1 (priority 1999, dated 2003).
Like-named read-outs stand apart in the source and are kept apart here.

Key:
[1] = system: primary cultures of rat hippocampal neurons; test: NMDA-induced neuronal death, trypan blue exclusion; type: cell-based; conditions: DNQX; 100 μM SR-95531; not shown
Description: Principally neuronal cultures were prepared from hippocampal tissue of fetal Sprague-Dawley rats on day 18 of embryonic development, as previously described (Brewer et al., Brain Research 494: 65-74 (1989)). Briefly, hippocampal cells were dissociated by trituration in Ca^2+/Mg^2+-free Hank's basic salt solution (Gibco) supplemented with 4.2 mM bicarbonate, 1 mM sodium pyruvate, 20 mM HEPES, 3 mg/ml bovine serum albumin (BSA). Dissociated cells were then pelleted by centrifugation (500×g, 4 min). […] Cells were then plated onto poly-L-lysine-coated 24-well culture dishes (Nunclon) at a density of 15,000 cell/cm^2 and maintained in a humidified atmosphere containing 5% CO2/95% air at 37° C. After 48 h, nonneuronal cell division was inhibited by a 48 h exposure to 1 μM cytosine arabinoside. Cultures were subsequently maintained in serum-free DMEM plus defined components and were used for experiments 16 to 24 days after plating.
Steroids were dissolved in DMSO (0.5% final concentration), and all treatment media contained 0.5% DMSO. […] Following exposure, cultures were washed 3 times with medium from sister cultures (conditioned medium). After the final wash, steroid or vehicle was reintroduced. Drugs were added to cultures in 25 μl of conditioned medium to yield a final volume of 0.25 ml per well. Except where otherwise noted, final steroid concentration was 100 μM.
The ability of neurons to exclude trypan blue was used to quantitate cell viability (Dawson et al., Proc Natl Acad Sci USA 88: 6368-6371 (1991)). […] Cultures were then fixed with 4% paraformaldehyde in PBS for 30 min, at whichtime the fixative was replaced with PBS. The number of stained and unstained neurons were counted in 4 high-power fields per culture well, using an inverted phase contrast microscope under both bright field and phase contrast settings. Experiments were performed in triplicate, and all assessments were made with the experimenter blind to the treatment of each culture well. Percent cell death is expressed as follows: (number of trypan blue stained neurons)/(total number of neurons)×100%.
All data are expressed as mean±standard error of the mean. Statistical significance was evaluated using 95% confidence limits unless otherwise noted.

[2] = biological target: NR1010/NR2A (Rattus norvegicus, UniProt P35439+Q00959); design: agonist nHill / agonist Emax: dose or concentration left out as unconfirmed; conditions: NR1010/NR2A
[3] = biological target: NR1101/NR2A (Rattus norvegicus, UniProt P35439+Q00959); design: agonist Emax: dose or concentration left out as unconfirmed; conditions: NR1101/NR2A
[4] = biological target: NR1/NR2D (NR1100) (Rattus norvegicus, UniProt P35439+Q62645)
Chain of NR1/NR2D (NR1100) (Q62645 28-1323, other chains not shown): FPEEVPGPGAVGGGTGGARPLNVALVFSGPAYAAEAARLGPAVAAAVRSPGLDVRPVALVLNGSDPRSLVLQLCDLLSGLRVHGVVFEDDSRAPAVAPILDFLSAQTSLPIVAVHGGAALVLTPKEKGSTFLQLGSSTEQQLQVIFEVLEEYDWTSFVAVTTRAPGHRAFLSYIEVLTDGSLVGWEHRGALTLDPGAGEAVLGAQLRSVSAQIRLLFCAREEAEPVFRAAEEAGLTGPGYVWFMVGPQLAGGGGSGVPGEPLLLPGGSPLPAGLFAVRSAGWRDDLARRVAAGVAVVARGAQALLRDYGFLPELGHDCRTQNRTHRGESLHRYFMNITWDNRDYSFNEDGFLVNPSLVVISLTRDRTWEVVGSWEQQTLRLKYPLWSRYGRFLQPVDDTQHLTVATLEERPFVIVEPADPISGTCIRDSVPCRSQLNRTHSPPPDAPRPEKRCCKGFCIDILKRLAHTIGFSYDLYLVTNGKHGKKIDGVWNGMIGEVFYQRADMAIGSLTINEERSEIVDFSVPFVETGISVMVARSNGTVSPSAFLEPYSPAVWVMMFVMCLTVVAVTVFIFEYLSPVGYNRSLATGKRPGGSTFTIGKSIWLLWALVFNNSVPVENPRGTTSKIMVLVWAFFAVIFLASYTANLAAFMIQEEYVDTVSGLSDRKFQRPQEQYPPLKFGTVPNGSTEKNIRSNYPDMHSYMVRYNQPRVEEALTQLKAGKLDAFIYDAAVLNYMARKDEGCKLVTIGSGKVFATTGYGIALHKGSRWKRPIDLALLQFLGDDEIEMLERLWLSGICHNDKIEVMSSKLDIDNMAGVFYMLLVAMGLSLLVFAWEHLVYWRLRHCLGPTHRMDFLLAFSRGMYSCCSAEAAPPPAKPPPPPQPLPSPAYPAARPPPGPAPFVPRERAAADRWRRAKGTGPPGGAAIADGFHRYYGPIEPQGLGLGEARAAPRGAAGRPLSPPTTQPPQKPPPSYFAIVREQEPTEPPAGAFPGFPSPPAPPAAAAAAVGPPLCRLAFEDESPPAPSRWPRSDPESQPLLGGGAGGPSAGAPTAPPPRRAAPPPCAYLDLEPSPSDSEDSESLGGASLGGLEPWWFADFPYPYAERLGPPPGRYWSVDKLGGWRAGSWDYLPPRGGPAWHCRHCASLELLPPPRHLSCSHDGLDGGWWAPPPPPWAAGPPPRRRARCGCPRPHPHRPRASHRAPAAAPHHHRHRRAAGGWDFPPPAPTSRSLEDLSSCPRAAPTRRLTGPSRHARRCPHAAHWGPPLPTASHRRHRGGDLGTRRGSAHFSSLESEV
From the text: (§5) Plasmids containing the NR1100 (NR1G) and NR2A cDNA inserts were kindly provided by Dr. Nakanishi (Kyoto University Faculty of Medicine, Kyoto, Japan). Plasmids containing the NR2B, NR2C and NR2D cDNA inserts were kindly provided by Dr. P. Seeburg (Heidelberg University, Heidelberg, Germany). Plasmids were linearized with appropriate restriction enzyme prior to in vitro transcription using the Message Machine kit (Ambion, Inc., Austin, Tex.).
(§6) Female, oocyte-positive Xenopus laevis frogs were purchased from Xenopus I (Dexter, Mich.). […] Oocytes were injected with 50 nL of RNA solutions using an electronic microinjector (Drummond Inc., Broomall, Pa.). […] The injected oocytes were used for experiments following 1-5 days of incubation in Barth's solution at 18-20° C.
(§7) The microelectrodes were fabricated from borosilicate glass capillaries with a programmed puller (Sutter Instrument Co., Calif.). Microelectrode resistance was 1-3 MΩ_when filled with 3 M KCl.
(§8) Except where otherwise stated, oocytes were clamped at a holding potential of −70 mV during data acquisition. The membrane current was filtered at 500 Hz and sampled at 100 Hz. Drugs were applied using a gravity-driven external perfusion system. The working volume of the recording chamber was 30 μl and the rate of the perfusion was 50 μl/sec. The drug application lasted 10 sec and was followed by 60 s wash. Data acquisition and external perfusion were controlled using custom-written software implemented in the SuperScope II development environment (GW Instruments, Mass.). All experiments were performed at room temperature of 22-24° C. Peak or steady-state current measurements were normalized and expressed as a fraction of the peak or steady-state control current measurements, which were performed before and after application of every single concentration of agonists or steroids.
(§9) Concentration-response data were analyzed by nonlinear regress ion using the logistic equation Response=Emax/(1+(EC50/c)^nH), where c is concentration, Emaxis the maximum response, nHis the Hill coefficient. The data are presented as mean±SEM. EC50values are averaged as logarithms (De Lean et al., Am. J. Physiol. 235: E97-E102 (1978))±the SEM of the log EC50. […] The pooled data were simultaneously fitted to the logistic equation, either with Emax and EC50 constrained to be identical in the presence and absence of PS, or allowing one or both to vary independently. […] This was regarded as indicating a significant treatment effect of PS, but the change in EC50and Emaxwas not considered significant. […] No attempt was made to test the generally small changes in nHfor statistical significance.

[5] = biological target: NR1000/NR2A (Rattus norvegicus, UniProt P35439+Q00959); design: agonist Emax: dose or concentration left out as unconfirmed; conditions: NR1000/NR2A
[6] = biological target: NR1001/NR2A (Rattus norvegicus, UniProt P35439+Q00959); design: agonist Emax: dose or concentration left out as unconfirmed; conditions: NR1001/NR2A
[7] = biological target: NR1011/NR2A (Rattus norvegicus, UniProt P35439+Q00959); design: agonist Emax: dose or concentration left out as unconfirmed; conditions: NR1011/NR2A
[8] = biological target: NR1/NR2C (NR1100) (Rattus norvegicus, UniProt P35439+Q00961); conditions: NR1/NR2C; for EC50: read-out: agonist EC50
From the text: as §5, §6, §7, §8, §9

[9] = biological target: NR1100/NR2A (Rattus norvegicus, UniProt P35439+Q00959); design: agonist nHill / agonist Emax: dose or concentration left out as unconfirmed; conditions: NR1100/NR2A
Chain of NR1100/NR2A (Q00959 23-1464, other chains not shown): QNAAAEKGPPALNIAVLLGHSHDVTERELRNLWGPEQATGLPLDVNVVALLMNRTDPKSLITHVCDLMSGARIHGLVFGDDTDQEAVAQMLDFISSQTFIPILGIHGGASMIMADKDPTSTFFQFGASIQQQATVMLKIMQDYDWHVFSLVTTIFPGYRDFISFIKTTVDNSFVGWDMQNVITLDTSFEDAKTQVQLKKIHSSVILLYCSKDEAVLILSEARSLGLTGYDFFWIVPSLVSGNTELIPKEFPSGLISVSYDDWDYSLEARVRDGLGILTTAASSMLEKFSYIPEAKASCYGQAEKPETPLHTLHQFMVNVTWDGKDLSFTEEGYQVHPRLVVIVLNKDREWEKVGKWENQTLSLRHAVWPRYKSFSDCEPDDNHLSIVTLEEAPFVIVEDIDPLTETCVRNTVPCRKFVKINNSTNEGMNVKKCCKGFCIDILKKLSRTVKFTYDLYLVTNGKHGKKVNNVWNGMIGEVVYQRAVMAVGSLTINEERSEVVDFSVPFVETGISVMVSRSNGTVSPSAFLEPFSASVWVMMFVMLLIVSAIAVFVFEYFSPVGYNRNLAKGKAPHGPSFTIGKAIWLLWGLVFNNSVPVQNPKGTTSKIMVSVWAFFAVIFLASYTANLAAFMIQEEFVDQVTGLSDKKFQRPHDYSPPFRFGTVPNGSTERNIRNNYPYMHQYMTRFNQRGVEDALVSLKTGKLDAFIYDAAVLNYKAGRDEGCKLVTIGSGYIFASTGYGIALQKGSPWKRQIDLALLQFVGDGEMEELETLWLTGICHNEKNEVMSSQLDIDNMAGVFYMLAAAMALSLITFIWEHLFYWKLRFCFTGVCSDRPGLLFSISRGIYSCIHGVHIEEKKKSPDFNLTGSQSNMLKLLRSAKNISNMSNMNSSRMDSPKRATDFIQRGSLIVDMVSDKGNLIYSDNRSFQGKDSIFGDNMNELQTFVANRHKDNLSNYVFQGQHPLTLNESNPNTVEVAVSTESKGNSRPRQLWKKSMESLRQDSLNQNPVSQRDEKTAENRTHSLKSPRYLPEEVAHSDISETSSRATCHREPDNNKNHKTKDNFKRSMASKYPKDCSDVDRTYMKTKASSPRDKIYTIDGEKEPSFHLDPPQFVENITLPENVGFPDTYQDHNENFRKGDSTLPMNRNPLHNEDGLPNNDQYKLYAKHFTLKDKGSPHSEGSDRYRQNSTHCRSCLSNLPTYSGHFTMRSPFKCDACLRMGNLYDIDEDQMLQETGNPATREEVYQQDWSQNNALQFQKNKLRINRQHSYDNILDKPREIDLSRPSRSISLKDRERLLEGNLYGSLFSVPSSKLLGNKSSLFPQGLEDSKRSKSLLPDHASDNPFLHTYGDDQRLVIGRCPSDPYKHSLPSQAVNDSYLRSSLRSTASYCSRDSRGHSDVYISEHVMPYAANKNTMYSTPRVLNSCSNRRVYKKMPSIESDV

[10] = biological target: NR1/NR2B (NR1100) (Rattus norvegicus, UniProt P35439+Q00960)
From the text: as §5, §6, §7, §8, §9

[11] = biological target: NR1111/NR2A (Rattus norvegicus, UniProt P35439+Q00959); design: agonist Emax: dose or concentration left out as unconfirmed; conditions: NR1111/NR2A
[12] = biological target: NR1/NR2A (NR1100) (Rattus norvegicus, UniProt P35439+Q00959)
Chain of NR1/NR2A (NR1100) (Q00959 23-1464, other chains not shown): as above

[13] = biological target: T1, GluR1 AMPA receptor (Rattus norvegicus, UniProt P19490); test: Kainate-induced currents, Xenopus oocytes injected with GluR1 cRNA; type: cell-based; conditions: GluR1, steroid 100 μM
T1 construct: expressed in transfected cells; host or cells: Xenopus oocytes injected with GluR1 cRNA
From the text: (§1) Plasmids were obtained from the following individuals: Dr. Suzanne Zukin (Albert Einstein College of Medicine, Bronx, N.Y.), NR1100; Dr. Shigetada Nakanishi (Kyoto University Faculty of Medicine, Kyoto, Japan), NR2A; Dr. Stephen Heinemann (Salk Institute, San Diego, Calif.), GluR1 (flop), GluR3 (flop), and GluR6. Plasmids were linearized with BamH1 (NR1100), XhoI (NR2A, GluR1, GluR3) or XbaI (GluR6) prior to in vitro transcription with T3 (GluR1, GluR3, GluR6) or T7 (NR1100, NR2A) RNA polymerase using the Message Machine kit (Ambion, Austin, Tex.). […] RNA solutions (50-70 nl) were injected into oocytes for delivery of NR1100 (5 ng), NR1100:NR2A (1:10 ng), GluR1 (5 ng). GluR3 (5 ng), or GluR6 (20 ng). Oocytes were incubated in ND96 at 18-20° C. for 3-7 days prior to electrophysiological recording.
(§2) Steroid solutions were prepared as 70-100 mM frozen stocks in dimethyl sulfoxide (DMSO). The final DMSO concentration of all recording solutions was between 0.1% to 0.5% and was constant within an experiment.
(§3) Perfusion control and data acquisition were carried out using an automated oocyte electrophysiology workstation that was developed for the rapid collection of concentration-response data and real-time waveform analysis (Yaghoubi et al., Soc. Neurosci. Abstr. 20: 1109 (1995)). This system is implemented on a Macintosh IIci computer (Apple Computer, Cupertino, Calif.) equipped with MacA-DIOS II data acquisition and control hardware (GW Instruments, Somerville, Mass.). Drug application is controlled by the computer through a series of valves, using custom-written software based on the SuperScope II development environment, improving the efficiency and reproducibility of data collection. Experiments were carried out using an Axoclamp-2A voltage clamp amplifier (Axon Instruments, Foster City, Calif.) in two-electrode voltage clamp mode. Intracellular microelectrodes (1-3 MΩ) were filled with 3 M KCl. […] Membrane potential was clamped at −60 to −70 mV and stepped to −100 mV at the start of data acquisition unless otherwise stated. […] Current and voltage recordings were digitized at 100 Hz for analysis. GluR6 injected oocytes were treated for 10 min with 10 μg/ml concanavalin A to prevent fast desensitization.
(§4) Results are expressed as mean±S.E.M. Statistical comparisons were made using Student's t-test.

[14] = biological target: T2, NR1100+NR2A NMDA receptor (Rattus norvegicus, UniProt P35439+Q00959); test: NMDA-induced currents, Xenopus oocytes, Example 1; type: cell-based; conditions: NR1100 + NR2A; steroid 100 μM; 100 μM NMDA; −100 mV
T2 construct: expressed in transfected cells; host or cells: Xenopus oocytes co-injected with NR1100 and NR2A cRNA
From the text: as §1, §2, §3, §4

[15] = biological target: T3, GluR3 AMPA receptor (Rattus norvegicus, UniProt P19492); test: Kainate-induced currents, Xenopus oocytes injected with GluR3 cRNA; type: cell-based; conditions: GluR3, steroid 100 μM
T3 construct: expressed in transfected cells; host or cells: Xenopus oocytes injected with GluR3 cRNA
From the text: as §1, §2, §3, §4

[16] = biological target: T4, GluR6 kainate receptor (Rattus norvegicus, UniProt P42260); test: Kainate-induced currents, Xenopus oocytes injected with GluR6 cRNA; type: cell-based; conditions: GluR6, steroid 100 μM
T4 construct: expressed in transfected cells; host or cells: Xenopus oocytes injected with GluR6 cRNA (concanavalin A treated)
T4 sequence (P42260 32-908): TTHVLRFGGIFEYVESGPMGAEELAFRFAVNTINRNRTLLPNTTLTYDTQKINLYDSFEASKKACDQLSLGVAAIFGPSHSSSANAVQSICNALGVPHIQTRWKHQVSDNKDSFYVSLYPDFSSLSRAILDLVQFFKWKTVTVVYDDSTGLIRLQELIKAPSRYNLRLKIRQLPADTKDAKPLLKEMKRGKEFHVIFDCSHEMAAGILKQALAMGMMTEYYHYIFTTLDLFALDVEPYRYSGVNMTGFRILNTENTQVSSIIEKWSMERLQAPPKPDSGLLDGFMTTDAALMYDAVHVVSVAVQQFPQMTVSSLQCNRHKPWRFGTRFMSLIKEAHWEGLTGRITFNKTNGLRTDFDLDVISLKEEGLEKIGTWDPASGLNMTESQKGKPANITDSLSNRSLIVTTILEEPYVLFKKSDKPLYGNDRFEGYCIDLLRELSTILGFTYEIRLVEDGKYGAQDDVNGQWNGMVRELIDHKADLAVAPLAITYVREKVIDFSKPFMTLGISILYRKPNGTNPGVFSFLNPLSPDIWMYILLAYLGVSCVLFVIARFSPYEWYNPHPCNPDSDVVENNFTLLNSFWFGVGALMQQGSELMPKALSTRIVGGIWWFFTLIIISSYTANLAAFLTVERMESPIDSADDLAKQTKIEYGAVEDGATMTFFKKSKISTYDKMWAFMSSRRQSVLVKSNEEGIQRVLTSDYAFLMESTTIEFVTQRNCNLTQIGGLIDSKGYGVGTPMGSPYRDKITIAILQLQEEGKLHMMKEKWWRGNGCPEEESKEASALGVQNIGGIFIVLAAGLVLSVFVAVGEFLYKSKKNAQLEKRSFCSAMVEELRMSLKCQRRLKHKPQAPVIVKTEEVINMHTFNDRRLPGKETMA
From the text: as §1, §2, §3, §4

Br.COc1ccc(-c2ccc(=N)n(CCCC(=O)O)n2)cc1 [SR-95531]
effect on NMDA-induced neuronal death [1]: no effect

N[C@@H](CCC(=O)O)C(=O)O [L-glutamate]
agonist Emax ([2]; absence of PS): 1.48 ± 0.03 | agonist nHill ([2]; absence of PS): 1.32 ± 0.14 | agonist nHill ([2]; presence of PS): 1.59 ± 0.15 | agonist Emax ([3]; absence of PS): 1.77 ± 0.09 | agonist Emax ([3]; presence of PS): 2.72 ± 0.07 | agonist Emax ([4]; +100 μM PS): 0.80 | agonist Emax ([4]; no PS): 1.10 ± 0.03 | EC50 ([4]; read-out: agonist EC50, +100 μM PS): 37 nM | EC50 ([4]; read-out: agonist EC50, no PS): 25 nM | agonist Emax ([5]; absence of PS): 1.75 ± 0.02 | agonist Emax ([5]; presence of PS): 2.92 ± 0.03 | agonist Emax ([6]; absence of PS): 2.10 ± 0.12 | agonist nHill ([6]; presence of 100 mM PS): 1.57 ± 0.18 | agonist Emax ([6]; presence of PS): 2.85 ± .26 | agonist Emax ([7]; absence of PS): 1.59 ± 0.03 | agonist Emax ([7]; presence of PS): 2.08 ± 0.21 | agonist Emax ([8]; +100 μM PS): 0.87 | agonist Emax ([8]; no PS): 1.31 ± 0.02 | EC50 ([8]; +100 μM PS): 60 nM | EC50 ([8]; no PS): 75 nM | agonist Emax ([9]; absence of PS): 1.50 ± 0.04 | agonist nHill ([9]; absence of PS): 1.15 ± 0.04 | agonist Emax ([9]; presence): 2.30 ± 0.21 | agonist nHill ([9]; presence): 0.98 ± 0.06 | agonist Emax ([10]; +100 μM PS): 1.34 ± 0.07 | agonist Emax ([10]; no PS): 1.23 ± 0.04 | agonist nH ([10]; no PS): 1.14 ± 0.10 | agonist Emax ([11]; absence of PS): 1.87 ± 0.12 | agonist nHill ([11]; absence of PS): 1.39 ± 0.02 | agonist Emax ([11]; presence of PS): 2.62 ± 0.27 | agonist Emax ([12]; +100 μM PS): 2.3 ± 0.2 | agonist nH ([12]; +100 μM PS): 0.98 ± 0.06 | agonist nH ([12]; no PS): 1.15 ± 0.04 | agonist Emax ([12]; no PS, normalized to 200 μM NMDA plus 10 μM glycine): 1.50

O=C1N=c2cc([N+](=O)[O-])c([N+](=O)[O-])cc2=NC1=O [DNQX, 6,7-dinitroquinoxaline-2,3-dione]
effect on NMDA-induced neuronal death [1]: no effect

C[C@]12CC[C@@H]3c4ccc(OS(=O)(=O)O)cc4CC[C@H]3[C@@H]1CC[C@@H]2O [17β-Estradiol-3-sulfate]
inhibition of the response to kainate [13]: no effect | Percentage change in kainate response ([13]; 100 μM kainate, −100 mV): −2 ± 2(3) % | Percentage change in NMDA response [14]: +12 ± 3(4) % | inhibition of the response to kainate [15]: no effect | Percentage change in kainate response ([15]; 100 μM kainate, −100 mV): −8 ± 4(3) % | inhibition of the response to kainate [16]: 12% | Percentage change in kainate response ([16]; 10 μM kainate, −100 mV): −13 ± 4(4) %
